Experimental data as given in ChEMBL document CHEMBL6120973 (J Med Chem, 2024).
≈ marks a conversion by molar mass, not a printed value.

How the values were obtained:
[1] = Solubility of compound in phosphate buffer at pH 7.4 measured after 24 hrs by HPLC analysis; type: physicochemical
[2] = Solubility of compound in phosphate buffer at pH 2.0 measured after 24 hrs by HPLC analysis; type: physicochemical
[3] = tested on: Human immunodeficiency virus 1; experiment: Antiviral activity against HIV-1 harboring RT Y188L mutant infected in human MT4 cells assessed as protection against virus-induced cytopathic effect incubated for 5 days by MTT assay; type: functional, organism-based; settings: Human immunodeficiency virus 1, MT4, 120 h
[4] = tested on: Human immunodeficiency virus 1; experiment: Antiviral activity against HIV-1 harboring RT L100I mutant infected in human MT4 cells assessed as protection against virus-induced cytopathic effect incubated for 5 days by MTT assay; type: functional, organism-based; settings: Human immunodeficiency virus 1, MT4, 120 h
[5] = tested on: Human immunodeficiency virus 1; experiment: Antiviral activity against HIV-1 harboring RT E138K mutant infected in human MT4 cells assessed as protection against virus-induced cytopathic effect incubated for 5 days by MTT assay; type: functional, organism-based; settings: Human immunodeficiency virus 1, MT4, 120 h
[6] = Acute toxicity in male ICR mouse assessed as effect on behavior at 2000 mg/kg, IG measured after 14 days; type: organism-based; settings: in vivo, po, 336 h, time 14 day
[7] = molecular target: Cytochrome P450 2C19 (Homo sapiens, UniProt P33261); experiment: Inhibition of CYP2C19 in human liver microsomes preincubated for 10 mins followed by NADPH addition and measured after 15 mins by LC/MS/MS analysis
Chain of Cytochrome P450 2C19 (P33261 whole entry): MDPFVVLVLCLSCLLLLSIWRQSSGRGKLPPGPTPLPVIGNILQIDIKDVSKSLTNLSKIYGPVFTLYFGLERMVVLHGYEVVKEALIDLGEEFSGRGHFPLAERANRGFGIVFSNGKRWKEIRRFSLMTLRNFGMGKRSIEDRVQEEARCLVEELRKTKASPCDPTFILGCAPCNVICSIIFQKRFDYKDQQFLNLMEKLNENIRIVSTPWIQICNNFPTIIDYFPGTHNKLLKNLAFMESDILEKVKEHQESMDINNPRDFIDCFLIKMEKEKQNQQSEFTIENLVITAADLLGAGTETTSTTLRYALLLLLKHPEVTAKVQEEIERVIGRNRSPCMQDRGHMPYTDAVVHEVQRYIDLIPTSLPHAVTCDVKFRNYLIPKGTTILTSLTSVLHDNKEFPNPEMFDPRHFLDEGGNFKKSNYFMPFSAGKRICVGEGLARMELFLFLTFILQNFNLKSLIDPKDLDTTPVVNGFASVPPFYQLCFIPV

[8] = Acute toxicity in female ICR mouse assessed as effect on pathological damage in spleen at 2000 mg/kg, IG measured after 14 days by H and E staining based analysis; type: organism-based; settings: in vivo, po, 336 h, time 14 day
[9] = Acute toxicity in male ICR mouse assessed as effect on pathological damage in heart at 2000 mg/kg, IG measured after 14 days by H and E staining based analysis; type: organism-based; settings: in vivo, po, 336 h, time 14 day
[10] = Metabolic stability in dog liver microsomes assessed as half-life at 0.1 uM preincubated for 10 mins followed by NADPH addition and measured upto 60 mins by LC-MS/MS analysis; type: ADME, Canis lupus familiaris, Microsome; settings: time < 70 min
[11] = Acute toxicity in female ICR mouse assessed as effect on pathological damage in kidney at 2000 mg/kg, IG measured after 14 days by H and E staining based analysis; type: organism-based; settings: in vivo, po, 336 h, time 14 day
[12] = molecular target: Cytochrome P450 3A4 (Homo sapiens, UniProt P08684); experiment: Inhibition of CYP3A4 in human liver microsomes using testosterone as substrate preincubated for 10 mins followed by NADPH addition and measured after 15 mins by LC/MS/MS analysis
Chain of Cytochrome P450 3A4 (P08684 whole entry): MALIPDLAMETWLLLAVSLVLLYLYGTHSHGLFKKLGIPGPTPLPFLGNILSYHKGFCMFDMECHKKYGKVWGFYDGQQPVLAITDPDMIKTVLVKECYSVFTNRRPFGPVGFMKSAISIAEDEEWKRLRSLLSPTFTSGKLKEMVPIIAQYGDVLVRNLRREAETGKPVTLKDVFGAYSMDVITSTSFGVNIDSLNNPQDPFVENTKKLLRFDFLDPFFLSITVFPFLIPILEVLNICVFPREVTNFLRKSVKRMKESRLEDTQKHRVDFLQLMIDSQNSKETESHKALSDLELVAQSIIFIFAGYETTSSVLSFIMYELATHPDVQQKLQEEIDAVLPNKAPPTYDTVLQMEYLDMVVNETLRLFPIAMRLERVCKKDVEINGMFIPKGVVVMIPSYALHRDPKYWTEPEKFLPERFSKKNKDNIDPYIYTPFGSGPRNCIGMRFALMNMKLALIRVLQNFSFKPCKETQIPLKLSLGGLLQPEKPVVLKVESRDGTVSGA

[13] = molecular target: Human immunodeficiency virus type 1 reverse transcriptase (Human immunodeficiency virus 1, UniProt Q72547); experiment: Inhibition of recombinant wild type HIV-1 Reverse transcriptase incubated for 40 mins by Pico-green reagent based fluorescence analysis

Cc1cc(-c2ccncc2)cc(C)c1Nc1nc(Nc2ccc(C#N)cc2)ncc1-c1cn[nH]c1
solubility at 24 h [1]: < 1 µg/mL
solubility at 24 h [2]: 1190 µg/mL (≈ 2600 µM)
EC50 [3]: 13 nM
EC50 [4]: 9 nM
EC50 [5]: 11 nM
Activity [6]: Non-toxic
IC50 [7]: > 50000 nM
Activity [8]: Non-toxic
Activity [9]: Non-toxic
half-life at 0.1 µM [10]: 58.8 min
Activity [11]: Non-toxic
IC50 [12]: > 50000 nM
IC50 [13]: 49 nM
